The text below walks through data of paper PMC3525754 (Biochemistry, 2012).

In general, pKi refers to the Ki on a negative log10 scale, so that one unit is a factor of ten.

pKi: −log10 of the molar value.

The target in experiment [1] is T1, DrPRODH (proline dehydrogenase from Deinococcus radiodurans R1) (Deinococcus radiodurans, UniProt Q9RW55). Briefly: X-ray crystal structure, […] Å. It counts as binding. Conditions: oxidized enzyme complexed with THFA; two ribityl conformations.
The target in experiment [2] is T1, DrPRODH (proline dehydrogenase from Deinococcus radiodurans R1). Briefly: steady-state CoQ1 reduction, absorbance […] nm. It counts as biochemical.
Experiment [3] has the same target. The experiment can be described thus: X-ray crystal structure, […] Å. It counts as binding. The following applies: crystal reduced by soaking in 50 mM sodium dithionite.

T1 sequence (Q9RW55 whole entry): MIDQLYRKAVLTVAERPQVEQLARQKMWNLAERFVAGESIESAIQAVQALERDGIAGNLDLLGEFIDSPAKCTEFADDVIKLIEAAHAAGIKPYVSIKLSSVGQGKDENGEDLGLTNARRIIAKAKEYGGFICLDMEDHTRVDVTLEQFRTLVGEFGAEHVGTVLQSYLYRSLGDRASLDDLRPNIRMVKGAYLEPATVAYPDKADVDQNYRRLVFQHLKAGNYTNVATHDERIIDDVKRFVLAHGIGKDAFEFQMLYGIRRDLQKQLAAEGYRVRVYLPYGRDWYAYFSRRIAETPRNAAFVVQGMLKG

As for `Cc1cc2nc3c(=O)[nH]c(=O)nc-3n(C[C@H](O)[C@H](O)[C@H](O)COP(=O)(O)OP(=O)(O)OC[C@H]3O[C@@H](n4cnc5c(N)ncnc54)[C@H](O)[C@@H]3O)c2cc1C` [FAD], the “X-ray crystal structure, 1.36 Å” value in experiment [1] is recorded as “The oxidized flavin exhibits two conformations”.
As to `O=C(O)[C@@H]1CCCO1` [THFA], the negative logarithm of the Ki (pKi) in experiment [2] was 1.42.
In the case of `Cc1cc2c(cc1C)N(C[C@H](O)[C@H](O)[C@H](O)COP(=O)(O)OP(=O)(O)OC[C@H]1O[C@@H](n3cnc4c(N)ncnc43)[C@H](O)[C@@H]1O)c1[nH]c(=O)[nH]c(=O)c1N2` [reduced FAD], in experiment [3], the “X-ray crystal structure, 1.75 Å” value is “The reduced flavin of DrPRODHr exhibits just one ribityl conformation”.
